Source: patent US10729680B2, “5-substituted 2-(morpholin-4-yl)-1,7-naphthyridines” (BAYER PHARMA AKTIENGESELLSCHAFT, priority 2016, dated 2020)

The compounds below were run against full-length human ATR protein (ATR/ATRIP) (Homo sapiens (Human), UniProt Q13535) (assay: Binding Assay ATR (TR-FRET, tracer A displacement)). Conditions: displacement of fluorescent tracer A from GST-ATR/ATRIP.
Source text: To determine of binding activity of the test compounds, full-length human ATR protein was expressed and purified together with ATRIP as described above. Furthermore, a fluorescently labelled compound (tracer A as described above) was used as a tracer molecule. Detection of the binding event of the tracer was achieved by time-resolved fluorescence energy transfer (TR-FRET). We used an anti-GST-Terbium antibody (CisBio) that binds to the GST-tag at the N-terminus of ATR-kinase. Excitation of Terbium with 337 nm light results in emission of fluorescent light with 545 nm. In case a tetrameric complex has formed (antiGST-Tb+GST-ATR+Strp2-ATRIP+tracer), part of the energy will be transferred from the Terbium to the fluorophore that itself emits light of 570 nm. Displacement of the fluorescent tracer by a test compound leads to a reduction of the TR-FRET-signal.
For the assay 50 nl of a 100-fold concentrated solution of the test compound in DMSO was pipetted into a black low volume 384 well microtiter plate (MTP, Greiner Bio-One, Frickenhausen, Germany). To prepare the ATR-working solution, ATR/ATRIP stock solution was diluted in assay buffer [50 mM HEPES (pH 7.0), 10 mM MgCl2, 1 mM DTT, 0.01% (w/v) Igepal, 0.01% (w/v) BSA] to 4.2 nM protein concentration (concentration may vary from lot to lot of protein preparation). AntiGST-Tb antibody was diluted to 4.2 nM. The ATR-working solution was incubated for 30 min at 22° C. prior to dispensing to pre-form the complex of antiGST-Tb+GST-ATR+ATRIP. Then, 3 μl of the ATR-working solution were added to the test compound and the mixture was incubated for 10 min at 22° C. to allow pre-binding of the test compounds to ATR/ATRIP. Then, 2 μl of a 100 nM solution of tracer A in assay buffer were added to the ATR-working solution. The resulting mixture was incubated for 30 min at 22° C. The measurement of the TR-FRET signal was performed in a standard HTRF-compatible MTP reader instrument (e.g. BMG Pherastar) by recording the fluorescence emissions at 545 nm and 570 nm after excitation at 337-350 nm. The ratio between emission at 570 nm divided by emission at 545 nm was calculated to give the well ratio. The experimental data (well ratios) were normalised by the following way: positive control contained ATR-working solution plus tracer A solution (=0% inhibition), the negative control contained all components except GST-ATR/ATRIP (=100% inhibition). Usually the compounds were tested on the same MTP in 11 different concentrations in the range of 20 μM to 0.1 nM (20 μM, 5.9 μM, 1.7 μM, 0.51 μM, 0.15 μM, 44 nM, 13 nM, 3.8 nM, 1.1 nM, 0.33 nM and 0.1 nM). The dilution series were prepared separately before the assay on the level of the 100 fold concentrated solutions in DMSO by serial 1:3.4 dilutions in duplicate values for each concentration. IC50 values were calculated by a 4 parameter fit using standard software (GraphPad prism or equivalent).

full-length human ATR protein (ATR/ATRIP), sequence (Q13535 other isoform, or with tags, fused parts or gaps): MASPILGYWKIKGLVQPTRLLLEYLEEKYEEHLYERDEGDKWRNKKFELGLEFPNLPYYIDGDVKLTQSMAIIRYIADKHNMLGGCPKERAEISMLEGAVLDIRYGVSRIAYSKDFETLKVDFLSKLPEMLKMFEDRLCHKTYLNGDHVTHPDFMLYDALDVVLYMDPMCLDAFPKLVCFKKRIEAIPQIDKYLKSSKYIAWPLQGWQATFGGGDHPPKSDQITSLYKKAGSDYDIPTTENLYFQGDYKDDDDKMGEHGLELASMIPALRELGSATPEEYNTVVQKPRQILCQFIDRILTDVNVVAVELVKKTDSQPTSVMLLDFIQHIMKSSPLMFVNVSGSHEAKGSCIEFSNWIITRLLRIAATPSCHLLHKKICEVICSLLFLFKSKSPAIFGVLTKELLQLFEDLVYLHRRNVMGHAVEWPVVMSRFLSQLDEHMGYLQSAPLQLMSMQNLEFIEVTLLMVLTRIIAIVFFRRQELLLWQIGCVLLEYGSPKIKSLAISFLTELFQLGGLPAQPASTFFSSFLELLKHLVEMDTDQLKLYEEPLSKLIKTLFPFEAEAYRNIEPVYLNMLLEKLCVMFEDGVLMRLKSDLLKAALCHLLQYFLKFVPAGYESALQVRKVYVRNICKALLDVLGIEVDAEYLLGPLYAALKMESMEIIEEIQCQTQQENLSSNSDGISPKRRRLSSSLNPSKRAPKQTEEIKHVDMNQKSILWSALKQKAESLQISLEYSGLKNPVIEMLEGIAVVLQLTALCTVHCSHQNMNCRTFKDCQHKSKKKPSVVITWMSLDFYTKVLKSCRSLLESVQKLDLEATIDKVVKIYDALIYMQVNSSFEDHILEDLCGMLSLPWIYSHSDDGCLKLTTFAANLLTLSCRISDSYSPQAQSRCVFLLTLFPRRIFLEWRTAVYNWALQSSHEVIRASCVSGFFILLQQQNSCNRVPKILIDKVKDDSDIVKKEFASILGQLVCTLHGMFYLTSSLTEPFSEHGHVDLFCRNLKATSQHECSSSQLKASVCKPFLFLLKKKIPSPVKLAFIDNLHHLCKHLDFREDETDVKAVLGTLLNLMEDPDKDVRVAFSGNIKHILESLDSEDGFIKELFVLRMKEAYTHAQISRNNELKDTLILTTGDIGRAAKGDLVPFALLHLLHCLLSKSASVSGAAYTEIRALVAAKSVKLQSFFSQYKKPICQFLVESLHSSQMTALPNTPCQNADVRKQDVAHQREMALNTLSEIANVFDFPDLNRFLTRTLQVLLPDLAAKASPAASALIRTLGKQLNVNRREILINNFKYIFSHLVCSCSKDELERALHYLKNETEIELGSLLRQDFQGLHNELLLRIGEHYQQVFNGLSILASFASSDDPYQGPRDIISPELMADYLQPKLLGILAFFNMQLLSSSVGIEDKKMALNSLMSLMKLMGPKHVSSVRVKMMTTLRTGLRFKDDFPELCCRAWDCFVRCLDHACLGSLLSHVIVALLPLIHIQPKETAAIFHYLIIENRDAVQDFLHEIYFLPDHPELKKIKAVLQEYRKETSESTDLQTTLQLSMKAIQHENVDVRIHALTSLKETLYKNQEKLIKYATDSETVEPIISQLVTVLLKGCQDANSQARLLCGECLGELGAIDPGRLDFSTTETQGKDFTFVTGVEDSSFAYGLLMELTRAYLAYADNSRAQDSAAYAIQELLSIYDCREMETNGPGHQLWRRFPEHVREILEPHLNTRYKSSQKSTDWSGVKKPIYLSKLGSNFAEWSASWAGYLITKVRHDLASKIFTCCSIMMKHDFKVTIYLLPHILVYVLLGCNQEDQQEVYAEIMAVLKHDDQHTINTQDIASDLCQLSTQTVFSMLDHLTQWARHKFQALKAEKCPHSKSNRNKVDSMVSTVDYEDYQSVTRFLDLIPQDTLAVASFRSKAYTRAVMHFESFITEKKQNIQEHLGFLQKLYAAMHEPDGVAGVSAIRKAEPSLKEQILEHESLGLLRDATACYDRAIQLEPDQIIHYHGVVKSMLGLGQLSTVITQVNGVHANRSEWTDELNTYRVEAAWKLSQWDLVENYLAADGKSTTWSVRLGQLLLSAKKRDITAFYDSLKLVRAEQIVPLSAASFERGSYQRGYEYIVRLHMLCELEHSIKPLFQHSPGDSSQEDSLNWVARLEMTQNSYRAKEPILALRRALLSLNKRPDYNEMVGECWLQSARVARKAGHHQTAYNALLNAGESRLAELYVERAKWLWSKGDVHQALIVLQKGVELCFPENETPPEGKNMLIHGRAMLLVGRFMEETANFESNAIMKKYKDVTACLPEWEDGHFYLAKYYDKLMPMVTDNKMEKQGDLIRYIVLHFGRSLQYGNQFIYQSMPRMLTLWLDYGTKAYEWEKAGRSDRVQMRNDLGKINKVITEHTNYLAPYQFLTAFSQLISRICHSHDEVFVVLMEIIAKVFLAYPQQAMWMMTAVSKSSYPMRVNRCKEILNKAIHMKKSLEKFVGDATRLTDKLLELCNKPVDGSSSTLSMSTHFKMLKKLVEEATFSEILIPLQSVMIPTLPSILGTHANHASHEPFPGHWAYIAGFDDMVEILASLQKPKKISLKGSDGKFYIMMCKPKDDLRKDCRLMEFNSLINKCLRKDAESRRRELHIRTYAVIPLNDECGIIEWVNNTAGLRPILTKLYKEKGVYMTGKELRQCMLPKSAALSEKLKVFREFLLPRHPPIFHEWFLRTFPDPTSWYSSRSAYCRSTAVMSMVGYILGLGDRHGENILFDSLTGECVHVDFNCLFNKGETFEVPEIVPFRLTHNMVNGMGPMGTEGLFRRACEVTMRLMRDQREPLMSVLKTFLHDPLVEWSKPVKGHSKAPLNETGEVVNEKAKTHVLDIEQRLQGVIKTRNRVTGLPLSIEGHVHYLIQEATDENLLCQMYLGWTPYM
full-length human ATR protein (ATR/ATRIP), sequence (Q8WXE1 other isoform, or with tags, fused parts or gaps partner): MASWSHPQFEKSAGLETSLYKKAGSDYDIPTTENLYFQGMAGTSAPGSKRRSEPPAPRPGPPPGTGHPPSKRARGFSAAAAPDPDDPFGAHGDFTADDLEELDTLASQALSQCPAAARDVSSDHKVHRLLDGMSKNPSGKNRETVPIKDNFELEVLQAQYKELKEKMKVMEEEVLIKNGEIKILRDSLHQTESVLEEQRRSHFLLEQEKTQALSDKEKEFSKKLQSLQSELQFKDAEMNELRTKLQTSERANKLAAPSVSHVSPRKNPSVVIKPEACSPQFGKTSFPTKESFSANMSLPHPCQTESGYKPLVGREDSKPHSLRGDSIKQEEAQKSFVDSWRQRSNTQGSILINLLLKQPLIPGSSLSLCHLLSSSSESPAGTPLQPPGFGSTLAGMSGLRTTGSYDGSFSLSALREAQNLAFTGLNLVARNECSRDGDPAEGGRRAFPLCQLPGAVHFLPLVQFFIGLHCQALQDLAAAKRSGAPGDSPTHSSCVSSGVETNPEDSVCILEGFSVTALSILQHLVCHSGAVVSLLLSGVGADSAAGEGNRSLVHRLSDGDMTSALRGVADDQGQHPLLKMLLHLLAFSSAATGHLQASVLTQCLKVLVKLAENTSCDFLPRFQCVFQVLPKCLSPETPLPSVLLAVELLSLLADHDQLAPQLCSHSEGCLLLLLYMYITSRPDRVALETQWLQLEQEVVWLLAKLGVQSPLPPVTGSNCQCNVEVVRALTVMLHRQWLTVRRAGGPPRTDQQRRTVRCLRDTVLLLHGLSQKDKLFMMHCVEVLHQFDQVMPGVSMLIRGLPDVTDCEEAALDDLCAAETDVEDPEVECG

Structure (SMILES) | IC50 [nM]
Cc1cnc(-c2ccn[nH]2)c2nc(N3CCOC[C@H]3C)cc(P(C)(C)=O)c12 [Example 18, 4-(dimethylphosphoryl)-5-methyl-2-[(3R)-3-methylmorpholin-4-yl]-8-(1H-pyrazol-5-yl)-1,7-naphthyridine] | 66.4
Cc1cnc(-c2ccn[nH]2)c2nc(N3CCOC[C@H]3C)cc(P(C)(=O)OCC(C)C)c12 (stereo partly drawn) [Example 19, 2-methylpropyl methyl{5-methyl-2-[(3R)-3-methylmorpholin-4-yl]-8-(1H-pyrazol-5-yl)-1,7-naphthyridin-4-yl}phosphinate] | 34.9
Cc1cnc(-c2ccn[nH]2)c2nc(N3CCOC[C@H]3C)cc(-c3ccccc3)c12 [Example 20, 5-methyl-2-[(3R)-3-methylmorpholin-4-yl]-4-phenyl-8-(1H-pyrazol-5-yl)-1,7-naphthyridine] | 24.4
Cc1cnc(-c2ccn[nH]2)c2nc(N3CCOC[C@H]3C)cc(-c3ccc4c(c3)OCCO4)c12 [Example 21, 4-(2,3-dihydro-1,4-benzodioxin-6-yl)-5-methyl-2-[(3R)-3-methylmorpholin-4-yl]-8-(1H-pyrazol-5-yl)-1,7-naphthyridine] | 17.9
Cc1cnc(-c2ccn[nH]2)c2nc(N3CCOC[C@H]3C)cc(-c3ccc(Cl)cc3Cl)c12 [Example 22, 4-(2,4-dichlorophenyl)-5-methyl-2-[(3R)-3-methylmorpholin-4-yl]-8-(1H-pyrazol-5-yl)-1,7-naphthyridine] | 16.4
Cc1cnc(-c2ccn[nH]2)c2nc(N3CCOC[C@H]3C)cc(-c3cccc(CO)c3)c12 [Example 23, (3-{5-methyl-2-[(3R)-3-methylmorpholin-4-yl]-8-(1H-pyrazol-5-yl)-1,7-naphthyridin-4-yl}phenyl)methanol] | 14
Cc1cnc(-c2ccn[nH]2)c2nc(N3CCOC[C@H]3C)cc(-c3ccc(F)cc3)c12 [Example 24, 4-(4-fluorophenyl)-5-methyl-2-[(3R)-3-methylmorpholin-4-yl]-8-(1H-pyrazol-5-yl)-1,7-naphthyridine] | 34.7
COc1ccc(-c2cc(N3CCOC[C@H]3C)nc3c(-c4ccn[nH]4)ncc(C)c23)cc1 [Example 25, 4-(4-methoxyphenyl)-5-methyl-2-[(3R)-3-methylmorpholin-4-yl]-8-(1H-pyrazol-5-yl)-1,7-naphthyridine] | 25.4
Cc1cnc(-c2ccn[nH]2)c2nc(N3CCOC[C@H]3C)cc(-c3cc(F)cc(F)c3F)c12 [Example 26, 5-methyl-2-[(3R)-3-methylmorpholin-4-yl]-8-(1H-pyrazol-5-yl)-4-(2,3,5-trifluorophenyl)-1,7-naphthyridine] | 11.2
COc1ccc(-c2cc(N3CCOC[C@H]3C)nc3c(-c4ccn[nH]4)ncc(C)c23)cn1 [Example 27, 4-(6-methoxypyridin-3-yl)-5-methyl-2-[(3R)-3-methylmorpholin-4-yl]-8-(1H-pyrazol-5-yl)-1,7-naphthyridine] | 15.4
Cc1cnc(-c2ccn[nH]2)c2nc(N3CCOC[C@H]3C)cc(-c3ccc([S+](C)[O-])cc3)c12 (stereo partly drawn) [Example 29, 5-methyl-2-[(3R)-3-methylmorpholin-4-yl]-4-[4-(methylsulfinyl)phenyl]-8-(1H-pyrazol-5-yl)-1,7-naphthyridine] | 29.1
COc1cccc(-c2cc(N3CCOC[C@H]3C)nc3c(-c4ccn[nH]4)ncc(C)c23)c1F [Example 30, 4-(2-fluoro-3-methoxyphenyl)-5-methyl-2-[(3R)-3-methylmorpholin-4-yl]-8-(1H-pyrazol-5-yl)-1,7-naphthyridine] | 17.5
Cc1cnc(-c2ccn[nH]2)c2nc(N3CCOC[C@H]3C)cc(-c3ccccc3S(C)(=O)=O)c12 [Example 31, 5-methyl-2-[(3R)-3-methylmorpholin-4-yl]-4-[2-(methylsulfonyl)phenyl]-8-(1H-pyrazol-5-yl)-1,7-naphthyridine] | 47.2
Cc1cnc(-c2ccn[nH]2)c2nc(N3CCOC[C@H]3C)cc(-c3ccc(NS(C)(=O)=O)cc3)c12 [Example 32, N-(4-{5-methyl-2-[(3R)-3-methylmorpholin-4-yl]-8-(1H-pyrazol-5-yl)-1,7-naphthyridin-4-yl}phenyl)methanesulfonamide] | 4.31
Cc1cnc(-c2ccn[nH]2)c2nc(N3CCOC[C@H]3C)cc(C3=CCCC3)c12 [Example 33, 4-(cyclopent-1-en-1-yl)-5-methyl-2-[(3R)-3-methylmorpholin-4-yl]-8-(1H-pyrazol-5-yl)-1,7-naphthyridine] | 26.5
Cc1cnc(-c2ccn[nH]2)c2nc(N3CCOC[C@H]3C)cc(-c3ccc(C(=O)N(C)C)cc3)c12 [Example 35, N,N-dimethyl-4-{5-methyl-2-[(3R)-3-methylmorpholin-4-yl]-8-(1H-pyrazol-5-yl)-1,7-naphthyridin-4-yl}benzamide] | 28.8
Cc1cc(-c2cc(N3CCOC[C@H]3C)nc3c(-c4ccn[nH]4)ncc(C)c23)ccc1Cl [Example 36, 4-(4-chloro-3-methylphenyl)-5-methyl-2-[(3R)-3-methylmorpholin-4-yl]-8-(1H-pyrazol-5-yl)-1,7-naphthyridine] | 456
COc1cccc(-c2cc(N3CCOC[C@H]3C)nc3c(-c4ccn[nH]4)ncc(C)c23)c1OC [Example 37, 4-(2,3-dimethoxyphenyl)-5-methyl-2-[(3R)-3-methylmorpholin-4-yl]-8-(1H-pyrazol-5-yl)-1,7-naphthyridine] | 13.8
COc1cc(Cl)ccc1-c1cc(N2CCOC[C@H]2C)nc2c(-c3ccn[nH]3)ncc(C)c12 [Example 38, 4-(4-chloro-2-methoxyphenyl)-5-methyl-2-[(3R)-3-methylmorpholin-4-yl]-8-(1H-pyrazol-5-yl)-1,7-naphthyridine] | 47.9
CSc1ccc(-c2cc(N3CCOC[C@H]3C)nc3c(-c4ccn[nH]4)ncc(C)c23)cc1 [Example 39, 5-methyl-2-[(3R)-3-methylmorpholin-4-yl]-4-[4-(methylsulfanyl)phenyl]-8-(1H-pyrazol-5-yl)-1,7-naphthyridine] | 31.9
Cc1cnc(-c2ccn[nH]2)c2nc(N3CCOC[C@H]3C)cc(-c3cccc(N(C)C)c3)c12 [Example 40, N,N-dimethyl-3-{5-methyl-2-[(3R)-3-methylmorpholin-4-yl]-8-(1H-pyrazol-5-yl)-1,7-naphthyridin-4-yl}aniline] | 34.3
Cc1cnc(-c2ccn[nH]2)c2nc(N3CCOC[C@H]3C)cc(-c3cccc(S(C)(=O)=O)c3)c12 [Example 41, 5-methyl-2-[(3R)-3-methylmorpholin-4-yl]-4-[3-(methylsulfonyl)phenyl]-8-(1H-pyrazol-5-yl)-1,7-naphthyridine] | 24.9
COc1cc(OC)cc(-c2cc(N3CCOC[C@H]3C)nc3c(-c4ccn[nH]4)ncc(C)c23)c1 [Example 42, 4-(3,5-dimethoxyphenyl)-5-methyl-2-[(3R)-3-methylmorpholin-4-yl]-8-(1H-pyrazol-5-yl)-1,7-naphthyridine] | 112
Cc1cnc(-c2ccn[nH]2)c2nc(N3CCOC[C@H]3C)cc(-c3ccnc4ccccc34)c12 [Example 43, 5-methyl-2-[(3R)-3-methylmorpholin-4-yl]-8-(1H-pyrazol-5-yl)-4-(quinolin-4-yl)-1,7-naphthyridine] | 36
Cc1cnc(-c2ccn[nH]2)c2nc(N3CCOC[C@H]3C)cc(-c3cccc4[nH]ccc34)c12 [Example 44, 4-(1H-indol-4-yl)-5-methyl-2-[(3R)-3-methylmorpholin-4-yl]-8-(1H-pyrazol-5-yl)-1,7-naphthyridine] | 35.5
